# Test results taken from publication PMC7413254 (Nature Communications, 2020).
# Where two headings read alike, the source gives them in different places.
# Assays:
# PfCRT^Ecu1110 [1] = target: T1, PfCRT^Ecu1110 (Plasmodium falciparum, UniProt Q9N623, A220S/I356L/K76T/N326D); test: [3H]CQ uptake into Xenopus oocytes, cis-inhibition by unlabelled solute; format: cell-based; conditions: for Uptake of [3H]CQ (% PfCRTEcu1110 control), cis-inhibition / PfCRT-mediated [3H]CQ transport, cis-inhibition (% PfCRTEcu1110 control): PfCRTEcu1110 oocytes; for Uptake of [3H]CQ (% PfCRTEcu1110 control), cis-inhibition: total [3H]CQ transport, normalised to the oocyte type control; for PfCRT-mediated [3H]CQ transport, cis-inhibition (% PfCRTEcu1110 control): background [3H]CQ accumulation subtracted, normalised to oocyte type control; for [3H]CQ transport (% PfCRTEcu1110 control), cis-inhibition, PfCRTEcu1110: PfCRT-mediated component (background subtracted), sheet title says normalised to PfCRTDd2 control, mean ± SEM, SEM
# How it was run: (§1)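 Each treatment used ten oocytes, repeated in at least four experiments on different days with oocytes from different frogs. Conditions: ND96 pH 5.5, 27.5 °C, 1.5 h; read-out by scintillation counting.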
# PfCRT^Dd2 [2] = target: T2, PfCRT^Dd2 (Plasmodium falciparum, UniProt Q9N623, A220S/I356T/K76T/M74I/N326S/N75E/Q271E/R371I); test: as above; format: cell-based; conditions: PfCRTDd2 oocytes, background [3H]CQ accumulation subtracted, normalised to oocyte type control
# How it was run: as §1
# PfNT1 = target: T3, PfNT1 (Plasmodium falciparum, UniProt Q8IDM6); test: cell-based; format: cell-based; conditions: PfNT1 oocytes, total [3H]CQ transport, normalised to the oocyte type control
# T3 construct: expressed in transfected cells; host or cells: Xenopus laevis oocytes (stage V-VI), cRNA-injected
# How it was run: (§2)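 Oocytes (ten per treatment, ≥4 independent frogs/days) were preloaded by injecting VF-6 in 25 nL ND96 at pH 5.0, 5.5, 6.0 or 7.0, or Na^+-free choline buffer, then uptake run 1.5 h, 27.5 °C, ND96 pH 5.5 by default. Internal concentrations assumed ~400 nL oocyte volume.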
# PfCRT^Ecu1110 [3] = target: T1, PfCRT^Ecu1110; test: cell-based; format: cell-based; conditions: for Uptake of [3H]CQ (% PfCRTEcu1110 control), trans-stimulation / PfCRT-mediated [3H]CQ transport, trans-stimulation (% PfCRTEcu1110 control): PfCRTEcu1110 oocytes; for Uptake of [3H]CQ (% PfCRTEcu1110 control), trans-stimulation: total [3H]CQ transport, normalised to the oocyte type control; for PfCRT-mediated [3H]CQ transport, trans-stimulation (% PfCRTEcu1110 control): normalised to oocyte type control; for [3H]CQ transport (% PfCRTDd2 control), trans-stimulation, PfCRTEcu1110: PfCRT-mediated component (background subtracted), sheet title says normalised to PfCRTDd2 control, mean ± SEM, SEM
# How it was run: as §2
# PfCRT^3D7 [4] = target: T4, PfCRT^3D7 (Plasmodium falciparum, UniProt Q8IBZ9); test: cell-based; format: cell-based; conditions: for Uptake of [3H]CQ (% PfCRT3D7 control), trans-stimulation / PfCRT-mediated [3H]CQ transport, trans-stimulation (% PfCRT3D7 control): PfCRT3D7 oocytes; for Uptake of [3H]CQ (% PfCRT3D7 control), trans-stimulation: total [3H]CQ transport, normalised to the oocyte type control; for PfCRT-mediated [3H]CQ transport, trans-stimulation (% PfCRT3D7 control): normalised to oocyte type control
# How it was run: as §2
# PfCRT^Dd2 [5] = target: T2, PfCRT^Dd2; test: cell-based; format: cell-based; conditions: for Uptake of [3H]CQ (% PfCRTDd2 control), trans-stimulation / PfCRT-mediated [3H]CQ transport, trans-stimulation (% PfCRTDd2 control): PfCRTDd2 oocytes; for Uptake of [3H]CQ (% PfCRTDd2 control), trans-stimulation: total [3H]CQ transport, normalised to the oocyte type control; for PfCRT-mediated [3H]CQ transport, trans-stimulation (% PfCRTDd2 control): normalised to oocyte type control; for [3H]CQ transport (% PfCRTDd2 control), trans-stimulation, PfCRTDd2: PfCRT-mediated component (background subtracted), mean ± SEM, SEM
# How it was run: as §2
# non-expressing oocytes [6] = test: cells; format: cell-based, Xenopus laevis; conditions: non-expressing oocytes, total [3H]CQ transport, normalised to the oocyte type control
# How it was run: as §1
# PfCRT^3D7 [7] = target: T4, PfCRT^3D7; test: cell-based; format: cell-based; conditions: PfCRT3D7 oocytes, total [3H]CQ transport, normalised to the oocyte type control
# How it was run: as §1
# non-expressing oocytes [8] = format: cell-based, Xenopus laevis; conditions: non-expressing oocytes, total [3H]CQ transport, normalised to the oocyte type control
# How it was run: as §2
# [9] = [test solute]i = 45 mM (30 mM for some solutes due to solubility)
# [10] = [test solute]i = 5 mM (intracellular)
# [11] = [test solute]i = 45 mM (intracellular; 30 mM for some solutes due to solubility)
# [12] = [test solute]i = 5 mM (injected)
# T1 sequence (Q9N623 whole entry A220S/I356L/K76T/N326D): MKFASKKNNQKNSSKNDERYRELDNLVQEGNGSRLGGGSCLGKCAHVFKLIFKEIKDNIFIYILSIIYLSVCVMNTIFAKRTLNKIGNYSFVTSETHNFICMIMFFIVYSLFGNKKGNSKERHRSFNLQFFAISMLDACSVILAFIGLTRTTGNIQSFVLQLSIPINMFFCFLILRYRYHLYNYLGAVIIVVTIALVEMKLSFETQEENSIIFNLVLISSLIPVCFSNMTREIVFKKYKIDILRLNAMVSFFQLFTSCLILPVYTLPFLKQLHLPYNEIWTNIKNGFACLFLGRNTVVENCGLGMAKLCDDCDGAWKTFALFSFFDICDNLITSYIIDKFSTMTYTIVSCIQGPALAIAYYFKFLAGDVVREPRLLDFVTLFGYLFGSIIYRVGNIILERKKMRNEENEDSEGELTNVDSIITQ
# T4 sequence (Q8IBZ9 59-398): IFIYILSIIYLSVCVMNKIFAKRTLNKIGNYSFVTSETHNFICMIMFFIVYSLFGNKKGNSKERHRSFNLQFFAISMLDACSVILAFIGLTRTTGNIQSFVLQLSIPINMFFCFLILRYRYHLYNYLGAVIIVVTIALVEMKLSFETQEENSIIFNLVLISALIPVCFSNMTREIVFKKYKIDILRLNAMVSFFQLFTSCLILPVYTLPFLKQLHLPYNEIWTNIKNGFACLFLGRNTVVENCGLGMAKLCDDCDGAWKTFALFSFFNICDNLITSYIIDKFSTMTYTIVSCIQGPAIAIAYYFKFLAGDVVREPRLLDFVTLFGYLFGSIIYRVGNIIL
# T2 sequence (Q9N623 whole entry A220S/I356T/K76T/M74I/N326S/N75E/Q271E/R371I): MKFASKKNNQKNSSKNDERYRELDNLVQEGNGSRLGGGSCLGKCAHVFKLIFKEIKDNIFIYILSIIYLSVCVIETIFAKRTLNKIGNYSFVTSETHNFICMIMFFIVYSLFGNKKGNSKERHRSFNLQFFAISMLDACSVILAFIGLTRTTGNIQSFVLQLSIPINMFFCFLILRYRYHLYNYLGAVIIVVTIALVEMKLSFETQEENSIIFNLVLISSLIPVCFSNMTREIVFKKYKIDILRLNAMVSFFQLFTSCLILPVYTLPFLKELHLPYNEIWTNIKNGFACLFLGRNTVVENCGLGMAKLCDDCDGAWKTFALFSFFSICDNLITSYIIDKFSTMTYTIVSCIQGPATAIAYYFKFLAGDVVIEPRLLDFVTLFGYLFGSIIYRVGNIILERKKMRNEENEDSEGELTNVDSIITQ
# T3 sequence (Q8IDM6 whole entry): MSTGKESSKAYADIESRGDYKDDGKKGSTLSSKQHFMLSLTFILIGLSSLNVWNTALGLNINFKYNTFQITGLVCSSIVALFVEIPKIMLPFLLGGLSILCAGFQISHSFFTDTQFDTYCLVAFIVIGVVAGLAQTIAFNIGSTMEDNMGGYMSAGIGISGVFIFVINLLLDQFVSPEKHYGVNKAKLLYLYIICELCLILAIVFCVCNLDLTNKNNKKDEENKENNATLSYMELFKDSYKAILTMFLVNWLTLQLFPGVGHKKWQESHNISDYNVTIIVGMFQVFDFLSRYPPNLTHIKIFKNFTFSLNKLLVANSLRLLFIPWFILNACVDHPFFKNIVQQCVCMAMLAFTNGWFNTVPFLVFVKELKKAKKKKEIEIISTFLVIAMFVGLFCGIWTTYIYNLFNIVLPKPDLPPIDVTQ
substance,measurement,setting,value
PHFD [PD-4],"Uptake of [3H]CQ (% PfCRTEcu1110 control), cis-inhibition",PfCRT^Ecu1110 [1]; [test solute] = 0.5 mM,54 ± 3.1 % PfCRTEcu1110 control
same,"Uptake of [3H]CQ (% PfCRTEcu1110 control), cis-inhibition",PfCRT^Ecu1110 [1]; [test solute] = 1 mM,38 ± 3.1 % PfCRTEcu1110 control
same,"Uptake of [3H]CQ (% PfCRTEcu1110 control), cis-inhibition",PfCRT^Ecu1110 [1]; [test solute] = 2 mM,27 ± 0.8 % PfCRTEcu1110 control
same,"PfCRT-mediated [3H]CQ transport, cis-inhibition (% PfCRTEcu1110 control)",PfCRT^Ecu1110 [1]; [test solute] = 0.5 mM,49 ± 2.1 % PfCRTEcu1110 control
same,"PfCRT-mediated [3H]CQ transport, cis-inhibition (% PfCRTEcu1110 control)",PfCRT^Ecu1110 [1]; [test solute] = 1 mM,33 ± 1.5 % PfCRTEcu1110 control
same,"PfCRT-mediated [3H]CQ transport, cis-inhibition (% PfCRTEcu1110 control)",PfCRT^Ecu1110 [1]; [test solute] = 2 mM,24 ± 1.1 % PfCRTEcu1110 control
same,"[3H]CQ transport (% PfCRTEcu1110 control), cis-inhibition, PfCRTEcu1110",PfCRT^Ecu1110 [1]; [test solute] = 0.5 mM,15 ± 0.5 % PfCRTEcu1110 control
same,"[3H]CQ transport (% PfCRTEcu1110 control), cis-inhibition, PfCRTEcu1110",PfCRT^Ecu1110 [1]; [test solute] = 1 mM,10 ± 0.1 % PfCRTEcu1110 control
same,"[3H]CQ transport (% PfCRTEcu1110 control), cis-inhibition, PfCRTEcu1110",PfCRT^Ecu1110 [1]; [test solute] = 2 mM,8.0 ± 0.06 % PfCRTEcu1110 control
same,"PfCRT-mediated [3H]CQ transport, cis-inhibition (% PfCRTDd2 control)",PfCRT^Dd2 [2]; [test solute] = 0.5 mM,56 ± 1.1 % PfCRTDd2 control
same,"PfCRT-mediated [3H]CQ transport, cis-inhibition (% PfCRTDd2 control)",PfCRT^Dd2 [2]; [test solute] = 1 mM,42 ± 0.5 % PfCRTDd2 control
same,"PfCRT-mediated [3H]CQ transport, cis-inhibition (% PfCRTDd2 control)",PfCRT^Dd2 [2]; [test solute] = 2 mM,17 ± 0.7 % PfCRTDd2 control
same,"Uptake of [3H]CQ (% PfNT1 control), trans-stimulation",PfNT1; [test solute]i = 5 mM,100 ± 3.5 % PfNT1 control
same,"Uptake of [3H]CQ (% PfNT1 control), trans-stimulation",PfNT1; [9],98 ± 2.2 % PfNT1 control
same,"Uptake of [3H]CQ (% PfCRTEcu1110 control), trans-stimulation",PfCRT^Ecu1110 [3]; [test solute]i = 5 mM,98 ± 1.4 % PfCRTEcu1110 control
same,"Uptake of [3H]CQ (% PfCRTEcu1110 control), trans-stimulation",PfCRT^Ecu1110 [3]; [9],100 ± 3.5 % PfCRTEcu1110 control
same,"PfCRT-mediated [3H]CQ transport, trans-stimulation (% PfCRTEcu1110 control)",PfCRT^Ecu1110 [3]; [10],96 ± 3.2 % PfCRTEcu1110 control
same,"PfCRT-mediated [3H]CQ transport, trans-stimulation (% PfCRTEcu1110 control)",PfCRT^Ecu1110 [3]; [11],98 ± 4.3 % PfCRTEcu1110 control
same,"[3H]CQ transport (% PfCRTDd2 control), trans-stimulation, PfCRTEcu1110",PfCRT^Ecu1110 [3]; [12],29 ± 1.4 % PfCRTEcu1110 control
same,"[3H]CQ transport (% PfCRTDd2 control), trans-stimulation, PfCRTEcu1110",PfCRT^Ecu1110 [3]; [9],30 ± 1.6 % PfCRTEcu1110 control
same,"Uptake of [3H]CQ (% PfCRT3D7 control), trans-stimulation",PfCRT^3D7 [4]; [test solute]i = 5 mM,99 ± 3.6 % PfCRT3D7 control
same,"Uptake of [3H]CQ (% PfCRT3D7 control), trans-stimulation",PfCRT^3D7 [4]; [9],100 ± 2.1 % PfCRT3D7 control
same,"[3H]CQ transport (% PfCRT3D7 control), trans-stimulation, PfCRT3D7",PfCRT^3D7 [4]; SEM,0.1 ± 0.02
same,"PfCRT-mediated [3H]CQ transport, trans-stimulation (% PfCRT3D7 control)",PfCRT^3D7 [4]; [10],97 ± 2.9 % PfCRT3D7 control
same,"PfCRT-mediated [3H]CQ transport, trans-stimulation (% PfCRT3D7 control)",PfCRT^3D7 [4]; [11],98 ± 4.2 % PfCRT3D7 control
same,"Uptake of [3H]CQ (% PfCRTDd2 control), trans-stimulation",PfCRT^Dd2 [5]; [test solute]i = 5 mM,102 ± 2.4 % PfCRTDd2 control
same,"Uptake of [3H]CQ (% PfCRTDd2 control), trans-stimulation",PfCRT^Dd2 [5]; [9],99 ± 2.9 % PfCRTDd2 control
same,"PfCRT-mediated [3H]CQ transport, trans-stimulation (% PfCRTDd2 control)",PfCRT^Dd2 [5]; [10],100 ± 4.2 % PfCRTDd2 control
same,"PfCRT-mediated [3H]CQ transport, trans-stimulation (% PfCRTDd2 control)",PfCRT^Dd2 [5]; [11],97 ± 2.8 % PfCRTDd2 control
same,"[3H]CQ transport (% PfCRTDd2 control), trans-stimulation, PfCRTDd2",PfCRT^Dd2 [5]; [12],100 ± 4.2 % PfCRTDd2 control
same,"[3H]CQ transport (% PfCRTDd2 control), trans-stimulation, PfCRTDd2",PfCRT^Dd2 [5]; [9],97 ± 2.8 % PfCRTDd2 control
same,"Uptake of [3H]CQ (% non-expressing oocyte control), cis-inhibition",non-expressing oocytes [6]; [test solute] = 0.5 mM,100 ± 4.3 % non-expressing oocyte control
same,"Uptake of [3H]CQ (% non-expressing oocyte control), cis-inhibition",non-expressing oocytes [6]; [test solute] = 1 mM,100 ± 3.7 % non-expressing oocyte control
same,"Uptake of [3H]CQ (% non-expressing oocyte control), cis-inhibition",non-expressing oocytes [6]; [test solute] = 2 mM,100 ± 4.6 % non-expressing oocyte control
same,"Uptake of [3H]CQ (% PfCRT3D7 control), cis-inhibition",PfCRT^3D7 [7]; [test solute] = 0.5 mM,98 ± 5.6 % PfCRT3D7 control
same,"Uptake of [3H]CQ (% PfCRT3D7 control), cis-inhibition",PfCRT^3D7 [7]; [test solute] = 1 mM,100 ± 5.5 % PfCRT3D7 control
same,"Uptake of [3H]CQ (% PfCRT3D7 control), cis-inhibition",PfCRT^3D7 [7]; [test solute] = 2 mM,99 ± 3.5 % PfCRT3D7 control
same,"Uptake of [3H]CQ (% non-expressing oocyte control), trans-stimulation",non-expressing oocytes [8]; [test solute]i = 5 mM,98 ± 2.0 % non-expressing oocyte control
same,"Uptake of [3H]CQ (% non-expressing oocyte control), trans-stimulation",non-expressing oocytes [8]; [9],99 ± 3.7 % non-expressing oocyte control
